Patent US20070015828A1 (Wyeth, priority 2005, published 2007)

What was measured:
Hygroscopicity = assay type: physicochemical
CACO-2 cells = experiment: Permeability assessment, HTS-24 CACO-2 model; assay type: in vitro ADME
Experimental: The rate of drug transport through the CACO-2 cells was determined as the Apparent Permeability Coefficient according to the following formula:
Papp=AQ X Rv cm.s- AT 60.A.Co
ΔT=Change in time (minutes)
Co=Initial concn in the donor chamber (mM.cm^−3)
A=Surface area of membrane (cm^2)
60=Conversion factor to give cm.s^−1
Rv=volume of receiver compartment.
Transepithelial electrical resistance (TER) was calculated from resistance measurements according to the following formula: TER=(R[cells+filter+medium])−(R[filter+medium])×cell area.
Apparent permeability rates were interpreted as follows. […] Apparent permeability values less than metoprolol or propranolol are considered to be ≦90% fa (moderate permeability classification). Apparent permeability values of <10 nms^−1 are considered to be ≦50% fa (low permeability classification). TER values of <120 ohms cm^2 indicate low monolayer integrity over the assay period.
A compound/metoprolol or propranolol ratio of <1 indicates a moderate to low permeability compound.

Adrenergic, Alpha 1A = molecular target: T1, Adrenergic, Alpha 1A (Rattus norvegicus, UniProt P43140); experiment: Receptor binding assay: Adrenergic Alpha 1A; conditions: Test Compound @ 10 1 M
T1 construct: Novascreen (assay provider)
T1 sequence (P43140 whole entry): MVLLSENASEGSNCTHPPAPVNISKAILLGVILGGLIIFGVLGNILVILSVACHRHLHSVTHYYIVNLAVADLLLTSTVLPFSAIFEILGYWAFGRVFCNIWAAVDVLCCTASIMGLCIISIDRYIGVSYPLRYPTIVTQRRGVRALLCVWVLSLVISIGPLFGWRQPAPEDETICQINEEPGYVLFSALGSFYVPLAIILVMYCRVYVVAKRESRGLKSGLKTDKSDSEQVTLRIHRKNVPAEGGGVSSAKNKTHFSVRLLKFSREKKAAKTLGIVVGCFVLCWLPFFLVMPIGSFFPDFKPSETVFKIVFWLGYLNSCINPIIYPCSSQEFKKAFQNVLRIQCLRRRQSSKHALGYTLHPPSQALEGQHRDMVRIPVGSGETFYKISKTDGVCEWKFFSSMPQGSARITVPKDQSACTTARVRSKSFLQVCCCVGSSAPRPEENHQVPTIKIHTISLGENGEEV

Adrenergic, Alpha 2A (h) = molecular target: T2, Adrenergic, Alpha 2A (h) (Homo sapiens, UniProt P08913); experiment: Receptor binding assay: Adrenergic Alpha 2A; conditions: Test Compound @ 10 1 M
T2 construct: Novascreen (assay provider)
T2 sequence (P08913 whole entry): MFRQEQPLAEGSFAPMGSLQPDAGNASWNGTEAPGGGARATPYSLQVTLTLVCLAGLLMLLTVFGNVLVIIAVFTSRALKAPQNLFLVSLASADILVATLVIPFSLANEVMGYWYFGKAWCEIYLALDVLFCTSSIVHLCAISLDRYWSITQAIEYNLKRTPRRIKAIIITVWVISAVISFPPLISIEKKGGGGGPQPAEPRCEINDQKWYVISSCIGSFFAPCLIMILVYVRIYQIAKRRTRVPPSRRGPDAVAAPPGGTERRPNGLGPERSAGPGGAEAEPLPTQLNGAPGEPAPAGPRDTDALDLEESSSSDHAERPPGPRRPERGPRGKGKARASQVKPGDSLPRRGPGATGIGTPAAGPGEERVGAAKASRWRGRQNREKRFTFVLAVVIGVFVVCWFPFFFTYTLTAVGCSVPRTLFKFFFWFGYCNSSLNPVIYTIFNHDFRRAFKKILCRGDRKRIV

Adrenergic, Beta 1 (hr) = Adrenergic, Beta 1 (hr) (Homo sapiens, UniProt P08588); experiment: Receptor binding assay: Adrenergic Beta 1; conditions: Test Compound @ 10 1 M
Sequence of Adrenergic, Beta 1 (hr) (P08588 whole entry): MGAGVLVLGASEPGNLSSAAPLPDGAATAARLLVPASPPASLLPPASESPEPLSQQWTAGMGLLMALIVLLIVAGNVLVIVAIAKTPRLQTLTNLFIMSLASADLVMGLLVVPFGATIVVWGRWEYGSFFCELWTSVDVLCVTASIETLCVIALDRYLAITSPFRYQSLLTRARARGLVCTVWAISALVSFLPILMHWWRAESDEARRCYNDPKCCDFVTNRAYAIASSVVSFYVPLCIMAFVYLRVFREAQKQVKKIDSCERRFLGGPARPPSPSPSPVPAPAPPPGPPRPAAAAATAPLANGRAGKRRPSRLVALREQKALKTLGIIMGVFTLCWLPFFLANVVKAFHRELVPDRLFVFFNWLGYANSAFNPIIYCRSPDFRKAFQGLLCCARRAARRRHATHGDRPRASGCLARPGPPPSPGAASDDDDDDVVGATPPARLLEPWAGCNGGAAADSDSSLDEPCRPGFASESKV

Adrenergic, Beta 2 (hr) = Adrenergic, Beta 2 (hr) (Homo sapiens, UniProt P07550); experiment: Receptor binding assay: Adrenergic Beta 2; conditions: Test Compound @ 10 1 M
Glutamate, Kainate Site = experiment: Receptor binding assay: Glutamate Kainate site; conditions: Test Compound @ 10 1 M
Histamine, H3 = experiment: Receptor binding assay: Histamine H3; conditions: Test Compound @ 10 1 M
Imidazoline, I1 = experiment: Imidazoline binding assay: I1; conditions: Test Compound @ 10 1 M
Muscarinic, M1 (hr) = molecular target: T3, Muscarinic, M1 (hr) (Homo sapiens, UniProt P11229); experiment: Receptor binding assay: Muscarinic M1; conditions: Test Compound @ 10 1 M
T3 construct: Novascreen (contract assay)
T3 sequence (P11229 whole entry): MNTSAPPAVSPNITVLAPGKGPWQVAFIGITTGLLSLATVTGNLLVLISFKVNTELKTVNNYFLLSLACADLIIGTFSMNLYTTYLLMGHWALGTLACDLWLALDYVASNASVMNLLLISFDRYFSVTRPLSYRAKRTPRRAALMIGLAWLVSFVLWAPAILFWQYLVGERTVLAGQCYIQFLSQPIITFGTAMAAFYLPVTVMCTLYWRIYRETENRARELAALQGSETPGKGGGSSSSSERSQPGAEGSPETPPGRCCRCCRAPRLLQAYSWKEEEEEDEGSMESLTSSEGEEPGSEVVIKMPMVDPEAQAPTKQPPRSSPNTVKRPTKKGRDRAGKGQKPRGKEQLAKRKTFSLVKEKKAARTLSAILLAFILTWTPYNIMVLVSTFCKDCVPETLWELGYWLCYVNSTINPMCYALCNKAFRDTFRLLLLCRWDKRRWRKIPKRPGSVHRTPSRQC

Muscarinic, M4 (hr) = molecular target: T4, Muscarinic, M4 (hr) (Homo sapiens, UniProt P08173); experiment: Receptor binding assay: Muscarinic M4; conditions: Test Compound @ 10 1 M
T4 construct: Novascreen (contract assay)
T4 sequence (P08173 whole entry): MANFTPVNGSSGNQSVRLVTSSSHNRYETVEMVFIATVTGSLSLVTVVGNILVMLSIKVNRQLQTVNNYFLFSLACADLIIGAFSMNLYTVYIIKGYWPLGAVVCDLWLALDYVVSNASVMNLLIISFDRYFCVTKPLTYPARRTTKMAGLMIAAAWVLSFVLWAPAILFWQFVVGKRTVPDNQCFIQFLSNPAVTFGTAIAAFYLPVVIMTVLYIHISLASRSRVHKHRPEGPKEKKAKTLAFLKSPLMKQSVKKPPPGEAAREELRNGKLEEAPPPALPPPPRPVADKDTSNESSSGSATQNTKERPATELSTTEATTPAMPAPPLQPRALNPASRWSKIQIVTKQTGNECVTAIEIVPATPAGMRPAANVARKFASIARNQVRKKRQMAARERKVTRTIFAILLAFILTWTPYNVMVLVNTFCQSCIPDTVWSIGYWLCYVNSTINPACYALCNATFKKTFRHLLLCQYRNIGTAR

Muscarinic, MS (hr) = molecular target: T5, Muscarinic, MS (hr) (Homo sapiens, UniProt P08912); experiment: Receptor binding assay: Muscarinic MS; conditions: Test Compound @ 10 1 M
T5 construct: Novascreen (contract assay)
T5 sequence (P08912 whole entry): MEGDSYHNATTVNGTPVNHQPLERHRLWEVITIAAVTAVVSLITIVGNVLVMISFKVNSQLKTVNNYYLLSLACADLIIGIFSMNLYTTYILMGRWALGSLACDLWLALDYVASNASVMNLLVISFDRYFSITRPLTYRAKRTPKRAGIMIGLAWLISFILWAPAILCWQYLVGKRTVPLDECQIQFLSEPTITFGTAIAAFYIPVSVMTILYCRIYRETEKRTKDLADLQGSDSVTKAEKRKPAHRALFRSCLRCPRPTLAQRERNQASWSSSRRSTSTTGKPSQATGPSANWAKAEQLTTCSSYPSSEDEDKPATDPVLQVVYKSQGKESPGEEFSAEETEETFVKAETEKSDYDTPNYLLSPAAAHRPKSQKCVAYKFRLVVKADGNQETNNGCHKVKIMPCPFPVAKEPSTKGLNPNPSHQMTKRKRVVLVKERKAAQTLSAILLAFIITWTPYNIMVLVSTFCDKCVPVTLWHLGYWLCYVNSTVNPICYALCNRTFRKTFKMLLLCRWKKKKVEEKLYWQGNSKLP

Opiate, Delta 2 (hr) = molecular target: T6, Opiate, Delta 2 (hr) (Homo sapiens, UniProt P41143); experiment: Receptor binding assay: Opiate Delta 2; conditions: Test Compound @ 10 1 M
T6 construct: Novascreen (contract assay)
T6 sequence (P41143 whole entry): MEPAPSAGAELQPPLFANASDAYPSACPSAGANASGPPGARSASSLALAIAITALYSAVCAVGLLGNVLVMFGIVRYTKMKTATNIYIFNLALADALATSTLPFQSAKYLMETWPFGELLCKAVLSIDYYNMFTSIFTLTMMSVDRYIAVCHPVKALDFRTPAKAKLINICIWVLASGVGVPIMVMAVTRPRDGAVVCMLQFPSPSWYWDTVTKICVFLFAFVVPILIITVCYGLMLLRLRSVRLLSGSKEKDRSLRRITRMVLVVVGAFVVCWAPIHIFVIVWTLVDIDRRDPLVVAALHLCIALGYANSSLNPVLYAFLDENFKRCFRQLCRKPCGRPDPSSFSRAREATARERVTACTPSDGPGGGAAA

Oxidase, MAO-A, Central = molecular target: T7, Oxidase, MAO-A, Central (Rattus norvegicus, UniProt P21396); experiment: Receptor binding assay: Oxidase MAO-A central (first line); conditions: Test Compound @ 10 1 M
T7 construct: Novascreen (contract assay)
T7 sequence (P21396 whole entry): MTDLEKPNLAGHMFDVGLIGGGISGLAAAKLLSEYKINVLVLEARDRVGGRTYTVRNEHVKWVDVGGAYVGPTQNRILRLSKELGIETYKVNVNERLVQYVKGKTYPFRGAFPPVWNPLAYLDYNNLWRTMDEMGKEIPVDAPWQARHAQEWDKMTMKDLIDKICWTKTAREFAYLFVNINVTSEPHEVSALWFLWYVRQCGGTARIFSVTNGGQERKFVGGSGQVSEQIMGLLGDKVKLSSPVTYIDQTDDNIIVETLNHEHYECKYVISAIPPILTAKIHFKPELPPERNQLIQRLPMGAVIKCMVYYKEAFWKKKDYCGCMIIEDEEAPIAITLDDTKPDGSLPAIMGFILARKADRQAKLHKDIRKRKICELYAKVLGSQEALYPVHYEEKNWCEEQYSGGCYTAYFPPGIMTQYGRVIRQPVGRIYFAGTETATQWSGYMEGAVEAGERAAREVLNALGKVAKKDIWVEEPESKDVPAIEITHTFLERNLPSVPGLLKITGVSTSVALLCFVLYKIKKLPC

Serotonin, 5HT1A (hr) = molecular target: T8, Serotonin, 5HT1A (hr) (Homo sapiens, UniProt P08908); experiment: Receptor binding assay: Serotonin 5HT1A; conditions: Test Compound @ 10 1 M
T8 construct: Novascreen (contract assay)
T8 sequence (P08908 whole entry): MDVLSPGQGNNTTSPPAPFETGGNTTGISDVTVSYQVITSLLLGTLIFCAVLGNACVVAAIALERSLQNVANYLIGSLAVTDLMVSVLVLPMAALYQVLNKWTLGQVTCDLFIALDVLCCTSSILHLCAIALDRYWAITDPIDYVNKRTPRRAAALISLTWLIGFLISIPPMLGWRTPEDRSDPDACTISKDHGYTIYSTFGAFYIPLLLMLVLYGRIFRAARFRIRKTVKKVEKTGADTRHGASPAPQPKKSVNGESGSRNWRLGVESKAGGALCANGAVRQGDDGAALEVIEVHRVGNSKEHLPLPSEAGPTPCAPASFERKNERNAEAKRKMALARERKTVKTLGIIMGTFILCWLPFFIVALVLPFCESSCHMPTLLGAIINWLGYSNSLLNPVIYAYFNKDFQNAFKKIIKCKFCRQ

Serotonin, 5HT2A (h) = molecular target: T9, Serotonin, 5HT2A (h) (Homo sapiens, UniProt P28223); experiment: Receptor binding assay: Serotonin 5HT2A; conditions: Test Compound @ 10 1 M
T9 construct: Novascreen (contract assay)

Serotonin, 5HT3 (hr) = molecular target: T10, Serotonin, 5HT3 (hr) (Homo sapiens, UniProt P46098); experiment: Receptor binding assay: Serotonin 5HT3; conditions: Test Compound @ 10 1 M
T10 construct: Novascreen (contract assay)
T10 sequence (P46098 24-478): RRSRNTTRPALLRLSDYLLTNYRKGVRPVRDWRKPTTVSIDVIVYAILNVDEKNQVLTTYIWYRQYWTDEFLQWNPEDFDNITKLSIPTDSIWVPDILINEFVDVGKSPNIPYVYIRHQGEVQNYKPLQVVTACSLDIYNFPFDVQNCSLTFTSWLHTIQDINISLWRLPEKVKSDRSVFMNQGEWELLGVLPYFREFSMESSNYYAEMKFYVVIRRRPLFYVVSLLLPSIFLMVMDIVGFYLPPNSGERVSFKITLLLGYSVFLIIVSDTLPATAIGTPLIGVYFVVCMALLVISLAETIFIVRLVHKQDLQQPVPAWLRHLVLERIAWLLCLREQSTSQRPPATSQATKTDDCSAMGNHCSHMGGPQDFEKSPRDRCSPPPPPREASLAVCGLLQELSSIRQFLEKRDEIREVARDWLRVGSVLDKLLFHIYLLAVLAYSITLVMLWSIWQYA

[1] = In vitro metabolism in hepatic microsomes, dog; assay type: in vitro ADME; conditions: male dogs, read-out: t1/2 in hepatic microsomes
Experimental: (§1) In vitro metabolism of 1-[2-dimethylamino-1-(4-phenol)ethyl]-cis-1,4-cyclohexandiol was conducted in the hepatic microsomes of Sprague-Dawley rats, male dogs, male monkeys and mixed male and female humans to characterize metabolic stability and identification of metabolites. 1-[2-dimethylamino-1-(4-phenol)ethyl]-cis-1,4-cyclohexandiol was stable (t1/2>60 minutes) in hepatic microsomes indicating Phase I and II metabolism was minimal in all species.

[2] = In vitro metabolism in hepatic microsomes, monkey; assay type: in vitro ADME; conditions: male monkeys, read-out: t1/2 in hepatic microsomes
Experimental: as §1

[3] = test system: spinal nerve ligation model of neuropathic pain, mechanical hyperalgesia; experiment: Spinal nerve ligation model of neuropathic pain, mechanical hyperalgesia; assay type: in vivo; conditions: rat
Experimental: 1-[2-dimethylamino-1-(4-phenol)ethyl]-cis-1,4-cyclohexandiol was dissolved in sterile saline and administered orally (p.o.) at dosages of 10 mg/kg, 30 mg/kg and 100 mg/kg. Gabapentin was purchased from Toronto Research Chemicals (Ontario, Canada) and suspended in 2% Tween 80 in 0.5% methylcellulose and administered intraperitoneally (i.p.).
For the visceral pain study male CD-1 mice (20-25 g, Charles River; Kingston/Stoneridge, NY) were housed in groups of 5/cage on bedding and for the neuropathic study male Sprague-Dawley rats (125-150 g, Harlan; Indianapolis, Ind.) were housed 3/cage on bedding. For all studies animals were maintained in climate-controlled rooms on a 12-hour light/dark cycle (lights on at 0630) with food and water available ad libitum.
Surgical procedures were performed under 4% isoflurane/O2 anesthesia, delivered via nose cone and maintained at 2.5% for the duration of the surgery. After induction of anesthesia, the incision site was shaved and prepared in a sterile manner. […]
For the neuropathic model statistical significance was determined using a repeated measure ANOVA using a customized SAS-excel application (SAS Institute, Cary, N.C.). Significant main effects were analyzed further by subsequent least significant difference analysis. […]
Assessment of mechanical hyperalgesia thresholds were measured as the hind paw withdrawal threshold to a noxious mechanical stimulus and was determined using the paw pressure technique [Randall, L. O. and Selitto, J. J., A method for measurement of analgesic activity on inflamed tissue, Arch. […] Thresholds were evaluated prior to surgery and reassessed three weeks after SNL surgery. On test day, rats were administered vehicle or test compound mechanical thresholds assessed 1, 3, 5 and 24 hr after administration (n=10/group).

## CN(C)CC(c1ccc(O)cc1)C1(O)CCC(O)CC1 (stereo not drawn) [1-[2-dimethylamino-1-(4-phenol)ethyl]-cis-1,4-cyclohexandiol]
Hygroscopicity
  Hygroscopicity: Non-hygroscopic
Hygroscopicity; at 26.30C/90% RH, weight gain is lost upon reduction in % RH
  Hygroscopicity, weight gain: < 2%
CACO-2 cells; CACO-2, from B:A ratio
  efflux activity: no efflux activity
CACO-2 cells; CACO-2, versus propranolol reference
  permeability classification: high permeability
Adrenergic, Alpha 1A
  inhibition at 10 µM: -1.96%
Adrenergic, Alpha 2A (h)
  inhibition at 10 µM: 10.4%
Adrenergic, Beta 1 (hr)
  inhibition at 10 µM: 7.65%
Adrenergic, Beta 2 (hr)
  inhibition at 10 µM: -2.46%
Glutamate, Kainate Site
  Receptor Binding % Inhibition: −0.51%
Histamine, H3
  Receptor Binding % Inhibition: 14.00%
Imidazoline, I1
  Receptor Binding % Inhibition: 17.43%
Muscarinic, M1 (hr)
  inhibition at 10 µM: -5.96%
Muscarinic, M4 (hr)
  inhibition at 10 µM: -3.52%
Muscarinic, MS (hr)
  inhibition at 10 µM: 5.4%
Opiate, Delta 2 (hr)
  inhibition at 10 µM: 12.2%
Oxidase, MAO-A, Central
  inhibition at 10 µM: -0.11%
Serotonin, 5HT1A (hr)
  inhibition at 10 µM: 1.8%
Serotonin, 5HT2A (h)
  inhibition at 10 µM: 3.7%
Serotonin, 5HT3 (hr)
  inhibition at 10 µM: 9.72%
[1]
  half-life: > 1 h
[2]
  half-life: > 1 h
[3]; 10 and 30 mg/kg
  effect versus the SNL/vehicle: positive trend
[3]; spinal nerve ligation, p.o.
  MED, reversal of mechanical hyperalgesia: 10 mg/kg
  reversal of mechanical hyperalgesia: statistically significant reversal
